In PubChem BioAssay AID2060887 (Molecular Pharmacology Branch, DTP, NCI, 2025):
Values belong to the molecule of their own block, whether it stands above or below them.

System: 782815-120-R-J1-PDC complex spheroid viability
Assay: Anticancer human tumor 782815-120-R-J1-PDC patient-derived colon adenocarcinoma cell line growth inhibition [RAS]
Settings: for viability, T/C: stronger effect = lower value
From the text: RAS pathway inhibitors in Combinations in Complex Spheroids
A high-throughput screen of multi-cell type tumor spheroids was designed to identify active combinations of RAS pathway inhibitors and targeted small molecules. Complex spheroids include a stromal component modeled by human endothelial cells (HUVEC) and fibroblasts modeled by human mesenchymal stem cells (MSCs). The concentration ranges selected for each drug and investigational agent were based upon clinically achievable concentrations if the clinical Cmax of the agent was known.
Compounds. The drugs and investigational agents: abemaciclib (NSC768073), cobimetinib (NSC768068), divarasib (GDC6063, NSC841802), docetaxel (NSC628503), GDC-1971 (RLY-1971, NSC841576), gemcitabine (NSC613327), inavolisib (NSC800729), ipatasertib (NSC767898), KB-0742 (NSC834161), MRTX-1133 (NSC836407), osimertinib (NSC779217), RMC-4630 (NSC839698), RMC-6236 (NSC851965), RMC-6291 (NSC852671), Ro-3306 (NSC812927), sapanisertib (NSC764658), SN-38 (NSC673596), staurosporine (NSC755774), SY5609 (NSC837396), and tovorafenib (DAY101, NSC766906), were obtained from the National Cancer Institute (NCI) Developmental Therapeutics Program Chemical Repository. The FDA-approved anticancer drug set is available from the NCI Developmental Therapeutics Program. […] The stock solutions were prepared in dimethyl sulfoxide (DMSO, Sigma-Aldrich, St. Louis, MO, cat. D2650) at 800-fold the tested concentration and stored at -70 degrees C prior to their use. All drugs and investigational agents were tested over a range starting from a high concentration at or near the clinical Cmax and decreasing in half-log increments. If the clinical Cmax for an agent had not been determined, the highest concentration tested was 10 microM.
Cell Culture. All cells were maintained in an incubator at 37 degrees C and 5% CO2 with 95% humidity. The PDC lines were cultured according to standard operating procedures established by the NCI PDMR. All PDCs were thawed and cultured in Matrigel-coated flasks prepared with a working solution of 1X Ham's F-12 nutrient mix, without supplementation (Invitrogen, Waltham, MA, cat. 11765054), 100 U/mL penicillin-streptomycin (Invitrogen, cat. 15140122), and 2.5% Matrigel (Corning Inc., Corning, NY, cat. 354248) for the first three passages. The 362531-283-R-J2-PDC and 782815-120-R-J1-PDC lines were cultured in 6C/Colon 1B media, which includes advanced DMEM/F-12 (Thermo Fisher Scientific, cat. 12634028), 10 mM HEPES (Thermo Fisher Scientific, cat. 15630080), 1X GlutaMAX supplement (Thermo Fisher Scientific, cat. 35050061), 0.1 mg/mL primocin (InvivoGen, San Diego, CA, cat. ant-pm-2), 10% defined fetal bovine serum, heat inactivated (HyClone Laboratories Inc., Logan, UT, cat. SH30070.03HI), 50% L-WRN conditioned media (ATCC, cat. CRL-3276), 1.25 mM N-Acetyl-L-cysteine (Sigma-Aldrich, cat. A9165), 10 mM nicotinamide (Sigma-Aldrich, cat. N0636), 1X B-27 supplement (Thermo Fisher Scientific, cat. 17504044), 1X N-2 supplement (Thermo Fisher Scientific, cat. 17502048), 50 ng/mL human EGF (Thermo Fisher Scientific, cat. PHG0311), and 10 microM Y-27632 dihydrochloride (Tocris Bioscience, cat. 1254). The K12877-001-R-J1-PDC line was cultured in 6I media, which includes all 6C/Colon 1B media plus 10 ng/mL human FGF-10 (PeproTech, cat. 100-26), 1 ng/mL human FGF-2 (PeproTech, cat. 100-18B), 1 µM prostaglandin E2 (Tocris Bioscience, cat. 2296), […] hydrocortisone (Sigma-Aldrich, cat. H4001), and […] bovine insulin (Sigma-Aldrich, cat. I6634). The K86415-001-R-J1-PDC line was cultured in 6D media, which includes all 6C/Colon 1B media components minus the L-WRN conditioned media. The 485176-168-R4-J1-PDC was cultured in PANC media, which includes all 6C/Colon 1B media plus 100 ng/mL human FGF-10 (PeproTech, cat. 100-26), 500 nM SB-431542 (Selleckchem, cat. S1067), and 10 nM gastrin (Tocris Bioscience, cat. 3006). […]
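Further: spheroids exposed to compounds for 7 days before reading.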
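Wherever viability, T/C is given: 100% = DMSO vehicle control viability.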

IC50 (curve of first compound, second compound 0.0316 µM): 4.66 nM
IC50 (curve of first compound, second compound 0.1 µM): 4.39 nM
IC50 (curve of first compound, second compound 0.316 µM): 4.86 nM
IC50 (curve of first compound, second compound 1 µM): 4.76 nM
IC50 (curve of first compound, second compound 3.16 µM): 4.2 nM
IC50 (curve of first compound, second compound 10 µM): 4.39 nM
Compound: CCc1c2c(nc3ccc(O)cc13)-c1cc3c(c(=O)n1C2)COC(=O)[C@]3(O)CC + C#Cc1c(F)ccc2cc(O)cc(-c3ncc4c(N5CC6CCC(C5)N6)nc(OCC56CCCN5CC(F)C6)nc4c3F)c12
viability, T/C (second compound 0.0316 µM, first compound 0.000949 µM): 94.9%
viability, T/C (second compound 0.0316 µM, first compound 0.003 µM): 67.9%
viability, T/C (second compound 0.0316 µM, first compound 0.00949 µM): 20.8%
viability, T/C (second compound 0.0316 µM, first compound 0.03 µM): 9.58%
viability, T/C (second compound 0.0316 µM, first compound 0.0949 µM): 4.66%
viability, T/C (second compound 0.0316 µM, first compound 0.3 µM): 1.46%
viability, T/C (second compound 0.1 µM, first compound 0.000949 µM): 98.9%
viability, T/C (second compound 0.1 µM, first compound 0.003 µM): 64%
viability, T/C (second compound 0.1 µM, first compound 0.00949 µM): 21.4%
viability, T/C (second compound 0.1 µM, first compound 0.03 µM): 10.5%
viability, T/C (second compound 0.1 µM, first compound 0.0949 µM): 4.8%
viability, T/C (second compound 0.1 µM, first compound 0.3 µM): 1.59%
viability, T/C (second compound 0.316 µM, first compound 0.000949 µM): 96.9%
viability, T/C (second compound 0.316 µM, first compound 0.003 µM): 69.3%
viability, T/C (second compound 0.316 µM, first compound 0.00949 µM): 22.6%
viability, T/C (second compound 0.316 µM, first compound 0.03 µM): 10.5%
viability, T/C (second compound 0.316 µM, first compound 0.0949 µM): 3.58%
viability, T/C (second compound 0.316 µM, first compound 0.3 µM): 1.52%
viability, T/C (second compound 1 µM, first compound 0.000949 µM): 99.9%
viability, T/C (second compound 1 µM, first compound 0.003 µM): 67.4%
viability, T/C (second compound 1 µM, first compound 0.00949 µM): 23.6%
viability, T/C (second compound 1 µM, first compound 0.03 µM): 9.52%
viability, T/C (second compound 1 µM, first compound 0.0949 µM): 3.42%
viability, T/C (second compound 1 µM, first compound 0.3 µM): 1.25%
viability, T/C (second compound 3.16 µM, first compound 0.000949 µM): 99.3%
viability, T/C (second compound 3.16 µM, first compound 0.003 µM): 61.9%
viability, T/C (second compound 3.16 µM, first compound 0.00949 µM): 21%
viability, T/C (second compound 3.16 µM, first compound 0.03 µM): 8.73%
viability, T/C (second compound 3.16 µM, first compound 0.0949 µM): 3.05%
viability, T/C (second compound 3.16 µM, first compound 0.3 µM): 1.2%
viability, T/C (second compound 10 µM, first compound 0.000949 µM): 102%
viability, T/C (second compound 10 µM, first compound 0.003 µM): 64%
viability, T/C (second compound 10 µM, first compound 0.00949 µM): 21%
viability, T/C (second compound 10 µM, first compound 0.03 µM): 11.2%
viability, T/C (second compound 10 µM, first compound 0.0949 µM): 2.93%
viability, T/C (second compound 10 µM, first compound 0.3 µM): 0.95%

IC50 (curve of compound): 66 nM [middle of 4 runs]
Compound: O=C(c1ccc(F)c(F)c1Nc1ccc(I)cc1F)N1CC(O)([C@@H]2CCCCN2)C1
viability, T/C (compound 0.00316 µM): 91.5% [middle of 4 runs]
viability, T/C (compound 0.01 µM): 82.9% [middle of 4 runs]
viability, T/C (compound 0.0316 µM): 66.7% [middle of 4 runs]
viability, T/C (compound 0.1 µM): 38.3% [middle of 4 runs]
viability, T/C (compound 0.316 µM): 19.9% [middle of 4 runs]
viability, T/C (compound 1 µM): 3.13% [middle of 4 runs]

IC50 (compound alone, run of 07/15/2024): > 1000 nM
IC50 (curve of compound): > 1000 nM
Compound: C=CC(=O)N1CCN(c2nc(OCC3CCCN3C)nc3c(F)c(-c4nc(N)cc(C)c4C(F)(F)F)c(Cl)cc23)C(C)C1 (configuration not stated)
viability, T/C (compound 0.00316 µM): 99.4% [middle of 12 runs]
viability, T/C (compound 0.01 µM): 102% [middle of 12 runs]
viability, T/C (compound 0.0316 µM): 102% [middle of 12 runs]
viability, T/C (compound 0.1 µM): 99.2% [middle of 12 runs]
viability, T/C (compound 0.316 µM): 102% [middle of 12 runs]
viability, T/C (compound 1 µM): 96.7% [middle of 12 runs]
